Test results taken from ChEMBL document CHEMBL3046025, “Fungitoxic Properties of N-Phenylformamidoximes in Control of Benzimidazole-Resistant Isolates of Fungi” (1992).
Calls of active or inactive are those of the source. No cut-off for these calls is given here.

Tests used:
Botrytis cinerea [1] = experiment: Antifungal activity against Benzimidalzole-resistant Botryotinia fuckeliana isolate Bc-44 infected kidney bean leaves at 12.5 ppm treated as foliar application followed by incubation for 7 days in green house condition; format: functional
Botrytis cinerea [2] = experiment: Antifungal activity against Benzimidalzole-resistant Botryotinia fuckeliana isolate Bc-44 infected kidney bean leaves at 50 ppm treated as foliar application followed by incubation for 7 days in green house condition; format: functional
Cercospora beticola [3] = experiment: Antifungal activity against Benzimidalzole-resistant Cercospora beticola isolate Cb-19 infected in sugar beet seedlings at 12.5 ppm treated as foliar application 7 days prior to inoculation; format: functional
Cercospora beticola [4] = experiment: Antifungal activity against Benzimidalzole-resistant Cercospora beticola isolate Cb-19 infected in sugar beet seedlings at 50 ppm treated as foliar application 7 days prior to inoculation; format: functional
Cercospora beticola [5] = experiment: Antifungal activity against Benzimidalzole-resistant Cercospora beticola isolate Cb-19 infected in sugar beet seedlings at 12.5 ppm 24 hr-post inoculation; format: functional
Cercospora beticola [6] = experiment: Antifungal activity against Benzimidalzole-resistant Cercospora beticola isolate Cb-19 infected in sugar beet seedlings at 50 ppm 24 hr-post inoculation; format: functional
Botrytis cinerea [7] = experiment: Antifungal activity against Benzimidalzole-resistant Botryotinia fuckeliana isolate Bc-44 infected kidney bean leaves at 50 ppm applied as soil drench 3 days prior to inoculation; format: functional
Botrytis cinerea [8] = experiment: Antifungal activity against Benzimidalzole-resistant Botryotinia fuckeliana isolate Bc-44 infected kidney bean leaves at 200 ppm applied as soil drench 3 days prior to inoculation; format: functional
Botrytis cinerea [9] = experiment: Antifungal activity against Benzimidalzole-sensitive Botryotinia fuckeliana isolate Bc-9 infected compound-treated kidney bean leaves at 50 ppm after 4 days; format: functional
Botrytis cinerea [10] = experiment: Antifungal activity against Benzimidalzole-sensitive Botryotinia fuckeliana isolate Bc-9 infected compound-treated kidney bean leaves at 200 ppm after 4 days; format: functional
Botrytis cinerea [11] = experiment: Ratio of EC50 for Benzimidalzole-resistant Botryotinia fuckeliana isolate Bc-40 to EC50 for Benzimidalzole-resistant Botryotinia fuckeliana isolate Bc-44; format: functional
Botrytis cinerea [12] = experiment: Ratio of EC50 for Benzimidalzole-resistant Botryotinia fuckeliana isolate Bc-20 to EC50 for Benzimidalzole-resistant Botryotinia fuckeliana isolate Bc-44; format: functional
Botrytis cinerea [13] = experiment: Ratio of EC50 for Benzimidalzole-sensitive Botryotinia fuckeliana isolate Bc-3 to EC50 for Benzimidalzole-resistant Botryotinia fuckeliana isolate Bc-44; format: functional
Cercospora beticola [14] = experiment: Ratio of EC50 for […] to EC50 for Benzimidalzole-resistant Cercospora beticola isolate 49-4; format: functional
Cercospora beticola [15] = experiment: Ratio of EC50 for Benzimidalzole-resistant Cercospora beticola isolate 20-2 to EC50 for Benzimidalzole-resistant Cercospora beticola isolate 18-2; format: functional
Cercospora beticola [16] = experiment: Ratio of EC50 for Benzimidalzole-resistant Cercospora beticola isolate 20-2 to EC50 for Benzimidalzole-resistant Cercospora beticola isolate 1-3; format: functional
Botrytis cinerea [17] = experiment: Antifungal activity against Benzimidalzole-resistant Botryotinia fuckeliana isolate Bc-44 at 0.001 to 1000 ppm after 3 days by agar dilution method; format: functional, organism-based
Cercospora beticola [18] = experiment: Ratio of EC50 for Benzimidalzole-resistant Cercospora beticola isolate 6-13 to EC50 for Benzimidalzole-resistant Cercospora beticola isolate 49-4; format: functional
Cercospora beticola [19] = experiment: Ratio of EC50 for Benzimidalzole-resistant Cercospora beticola isolate 6-13 to EC50 for Benzimidalzole-resistant Cercospora beticola isolate 1-3; format: functional
Cercospora beticola [20] = experiment: Antifungal activity against Benzimidalzole-sensitive Cercospora beticola isolate 24-3 at 0.001 to 1000 ppm after 14 days by agar dilution method; format: functional, organism-based
Cercospora beticola [21] = experiment: Antifungal activity against Benzimidalzole-sensitive Cercospora beticola isolate 18-1 at 0.001 to 1000 ppm after 14 days by agar dilution method; format: functional, organism-based
Cercospora beticola [22] = experiment: Antifungal activity against Benzimidalzole-resistant Cercospora beticola isolate 28-8 at 0.001 to 1000 ppm after 14 days by agar dilution method; format: functional, organism-based
Cercospora beticola [23] = experiment: Antifungal activity against Benzimidalzole-resistant Cercospora beticola isolate Cb-19 at 0.001 to 1000 ppm after 14 days by agar dilution method; format: functional, organism-based
Cercospora beticola [24] = experiment: Antifungal activity against Benzimidalzole-resistant Cercospora beticola isolate 49-4 at 0.001 to 1000 ppm after 14 days by agar dilution method; format: functional, organism-based
Cercospora beticola [25] = experiment: Antifungal activity against Benzimidalzole-sensitive Cercospora beticola isolate 18-1 infected in compound-treated sugar beet seedlings at 200 ppm after 12 days; format: functional
Cercospora beticola [26] = experiment: Ratio of EC50 for Benzimidalzole-sensitive Cercospora beticola isolate 22-5 to EC50 for Benzimidalzole-resistant Cercospora beticola isolate 49-4; format: functional
Cercospora beticola [27] = experiment: Ratio of EC50 for Benzimidalzole-sensitive Cercospora beticola isolate 22-5 to EC50 for Benzimidalzole-resistant Cercospora beticola isolate 18-2; format: functional
Cercospora beticola [28] = experiment: Ratio of EC50 for Benzimidalzole-sensitive Cercospora beticola isolate 18-1 to EC50 for Benzimidalzole-resistant Cercospora beticola isolate 49-4; format: functional
Cercospora beticola [29] = experiment: Ratio of EC50 for Benzimidalzole-sensitive Cercospora beticola isolate 18-1 to EC50 for Benzimidalzole-resistant Cercospora beticola isolate 18-2; format: functional
Cercospora beticola [30] = experiment: Ratio of EC50 for Benzimidalzole-sensitive Cercospora beticola isolate 18-1 to EC50 for Benzimidalzole-resistant Cercospora beticola isolate 1-3; format: functional
Cercospora beticola [31] = experiment: Ratio of EC50 for Benzimidalzole-sensitive Cercospora beticola isolate 18-1 to EC50 for Benzimidalzole-resistant Cercospora beticola isole 28-8; format: functional
Cercospora beticola [32] = experiment: Ratio of EC50 for Benzimidalzole-sensitive Cercospora beticola isolate 18-1 to EC50 for Benzimidalzole-resistant Cercospora beticola isole Cb-19; format: functional
Botrytis cinerea [33] = experiment: Antifungal activity against Benzimidalzole-resistant Botryotinia fuckeliana isolate Bc-44 infected kidney bean leaves at 3.1 ppm 24 hr post-infection measured after 3 days; format: functional
Botrytis cinerea [34] = experiment: Antifungal activity against Benzimidalzole-resistant Botryotinia fuckeliana isolate Bc-44 infected kidney bean leaves at 12.5 ppm 24 hr post-infection measured after 3 days; format: functional
Botrytis cinerea [35] = experiment: Antifungal activity against Benzimidalzole-resistant Botryotinia fuckeliana isolate Bc-44 infected kidney bean leaves at 50 ppm 24 hr post-infection measured after 3 days; format: functional
Botrytis cinerea [36] = experiment: Antifungal activity against Benzimidalzole-resistant Botryotinia fuckeliana isolate Bc-44 infected kidney bean leaves at 200 ppm 24 hr post-infection measured after 3 days; format: functional
Cercospora beticola [37] = experiment: Antifungal activity against Benzimidalzole-resistant Cercospora beticola isolate 18-2 infected in compound-treated sugar beet seedlings at 3.1 ppm after 12 days; format: functional
Cercospora beticola [38] = experiment: Antifungal activity against Benzimidalzole-resistant Cercospora beticola isolate 18-2 infected in compound-treated sugar beet seedlings at 12.5 ppm after 12 days; format: functional
Cercospora beticola [39] = experiment: Antifungal activity against Benzimidalzole-resistant Cercospora beticola isolate 18-2 infected in compound-treated sugar beet seedlings at 50 ppm after 12 days; format: functional
Cercospora beticola [40] = experiment: Antifungal activity against Benzimidalzole-resistant Cercospora beticola isolate Cb-19 infected in compound-treated sugar beet seedlings at 3.1 ppm after 12 days; format: functional
Cercospora beticola [41] = experiment: Antifungal activity against Benzimidalzole-resistant Cercospora beticola isolate Cb-19 infected in compound-treated sugar beet seedlings at 50 ppm after 12 days; format: functional
Cercospora beticola [42] = experiment: Antifungal activity against Benzimidalzole-resistant Cercospora beticola isolate Cb-19 infected in compound-treated sugar beet seedlings at 200 ppm after 12 days; format: functional
Botrytis cinerea [43] = experiment: Antifungal activity against Benzimidalzole-resistant Botryotinia fuckeliana isolate Bc-44 infected compound-treated kidney bean leaves at 3.1 ppm after 4 days; format: functional

With `C#CCOc1cc(N/C=N/OC)cc(Cl)c1OCC#C` the Activity (Botrytis cinerea [1]) was 63%, the Activity (Botrytis cinerea [2]) was 90% and the Activity (Cercospora beticola [3]) was 80%. The Activity (Cercospora beticola [4]) was 100%, the Activity (Cercospora beticola [5]) was 91% and the Activity (Cercospora beticola [6]) was 100%. The Activity (Botrytis cinerea [7]) was 6%, the Activity (Botrytis cinerea [8]) was 77% and the Activity (Botrytis cinerea [9]) was 0%. For the same compound, the Activity (Botrytis cinerea [10]) was 7%, the Ratio EC50 (Botrytis cinerea [11]) was greater than 1000 and the Ratio EC50 (Botrytis cinerea [12]) was greater than 1000. It also gave a Ratio EC50 (Botrytis cinerea [13]) greater than 1000, a Ratio EC50 (Cercospora beticola [14]) greater than 1000 and a Ratio EC50 (Cercospora beticola [15]) greater than 1000. For the same compound, the Ratio EC50 (Cercospora beticola [16]) was greater than 1000, the Activity (Botrytis cinerea [17]) was “Active” and the Ratio EC50 (Cercospora beticola [18]) was greater than 1000. For the same compound, the Ratio EC50 (Cercospora beticola [19]) was greater than 1000, the Activity (Cercospora beticola [20]) was “inactive” and the Activity (Cercospora beticola [21]) was “inactive”. The Activity (Cercospora beticola [22]) was “Active”, the Activity (Cercospora beticola [23]) was “Active” and the Activity (Cercospora beticola [24]) was “Active”. For the same compound, the Activity (Cercospora beticola [25]) was 0%, the Ratio EC50 (Cercospora beticola [26]) was greater than 1000 and the Ratio EC50 (Cercospora beticola [27]) was greater than 1000. For the same compound, the Ratio EC50 (Cercospora beticola [28]) was greater than 1000, the Ratio EC50 (Cercospora beticola [29]) was greater than 1000 and the Ratio EC50 (Cercospora beticola [30]) was greater than 1000. The Ratio EC50 (Cercospora beticola [31]) was greater than 1000, the Ratio EC50 (Cercospora beticola [32]) was greater than 1000 and the Activity (Botrytis cinerea [33]) was 91%. For the same compound, the Activity (Botrytis cinerea [34]) was 100%, the Activity (Botrytis cinerea [35]) was 100% and the Activity (Botrytis cinerea [36]) was 100%. The Activity (Cercospora beticola [37]) was 84%, the Activity (Cercospora beticola [38]) was 100% and the Activity (Cercospora beticola [39]) was 100%. The Activity (Cercospora beticola [40]) was 94%, the Activity (Cercospora beticola [41]) was 100% and the Activity (Cercospora beticola [42]) was 100%. The Activity (Botrytis cinerea [43]) was 100%.
`C#CCOc1c(Cl)cc(N/C=N/OC)cc1Cl` showed an Activity (Botrytis cinerea [1]) of 53%, an Activity (Botrytis cinerea [2]) of 100% and an Activity (Cercospora beticola [3]) of 93%. It also gave an Activity (Cercospora beticola [4]) of 99%, an Activity (Cercospora beticola [5]) of 96% and an Activity (Cercospora beticola [6]) of 98%. For the same compound, the Activity (Botrytis cinerea [7]) was 0%, the Activity (Botrytis cinerea [8]) was 7% and the Activity (Botrytis cinerea [9]) was 5%. The Activity (Botrytis cinerea [10]) was 8%, the Ratio EC50 (Botrytis cinerea [11]) was greater than 1000 and the Ratio EC50 (Botrytis cinerea [12]) was greater than 1000. For the same compound, the Ratio EC50 (Botrytis cinerea [13]) was greater than 1000, the Ratio EC50 (Cercospora beticola [14]) was greater than 1000 and the Ratio EC50 (Cercospora beticola [15]) was greater than 1000. The Ratio EC50 (Cercospora beticola [16]) was greater than 1000, the Activity (Botrytis cinerea [17]) was “Active” and the Ratio EC50 (Cercospora beticola [18]) was greater than 1000. The Ratio EC50 (Cercospora beticola [19]) was greater than 1000, the Activity (Cercospora beticola [20]) was “inactive” and the Activity (Cercospora beticola [21]) was “inactive”. The Activity (Cercospora beticola [22]) was “Active”, the Activity (Cercospora beticola [23]) was “Active” and the Activity (Cercospora beticola [24]) was “Active”. The Activity (Cercospora beticola [25]) was 0%, the Ratio EC50 (Cercospora beticola [26]) was greater than 1000 and the Ratio EC50 (Cercospora beticola [27]) was greater than 1000. For the same compound, the Ratio EC50 (Cercospora beticola [28]) was greater than 1000, the Ratio EC50 (Cercospora beticola [29]) was greater than 1000 and the Ratio EC50 (Cercospora beticola [30]) was greater than 1000. The Ratio EC50 (Cercospora beticola [31]) was greater than 1000, the Ratio EC50 (Cercospora beticola [32]) was greater than 1000 and the Activity (Botrytis cinerea [33]) was 73%. The Activity (Botrytis cinerea [34]) was 93%, the Activity (Botrytis cinerea [35]) was 100% and the Activity (Botrytis cinerea [36]) was 100%. The Activity (Cercospora beticola [37]) was 91%, the Activity (Cercospora beticola [38]) was 94% and the Activity (Cercospora beticola [39]) was 100%. The Activity (Cercospora beticola [40]) was 91%, the Activity (Cercospora beticola [41]) was 100% and the Activity (Cercospora beticola [42]) was 100%. It also gave an Activity (Botrytis cinerea [43]) of 95%.
